Experiment: Binding of acidic organic drugs to anion-exchanger
Assay type: physicochemical
Settings: sodium salt of drug; anion-exchanger of Example XIII
Procedure: The preparation of the anion-exchanger is achieved in two steps. […] In the second step, the practically non-ionic microparticles are incubated in hot dilute solution (^˜80° C.) of hexanediamine of known concentration in dioxane under argon for 2-4 hours. The concentration of the diamine in dioxane is determined by acidimetry. When the reaction practically ceases to take place, the aminated microparticles are separated by filtration, rinsed with dioxane, and dried under reduced pressure. The binding capacity of the anion-exchanger (aminated particles) is determined by (1) elemental analysis for nitrogen and (2) extent of binding to naproxin by measuring the extent of drug removed from a dilute solution using HPLC. The latter is confirmed by release of the immobilized naproxin with a dilute sodium hydroxide solution of known concentration.
Typical examples of acidic organic drugs that are available as sodium salt are ganciclovir, naproxin, and ibuprofen. In typical experiments, the aforementioned drugs are bound to the anion-exchanger of Example XIII following a similar scheme to that used in the same example describing the binding of naproxin.

| % Drug bound to anion-exchanger | Structure (SMILES) |
| --- | --- |
| 8% | CC(C)Cc1ccc(C(C)C(=O)O)cc1 (stereo not drawn) [Ibuprofen, ibuprofen] |
| 11% | COc1ccc2cc([C@H](C)C(=O)O)ccc2c1 [Naproxin, naproxin] |
| 6% | Nc1nc(O)c2ncn(COC(CO)CO)c2n1 [Ganciclovir, ganciclovir] |

Source: patent US6413539B1, “Hydrogel-forming, self-solvating absorbable polyester copolymers, and methods for use thereof” (Poly-Med, Inc., priority 1996, dated 2002)
